Assays:
Assay type in all cases: in vivo
[1] = tested on: Echinochloa oryzacola Vasing.; assay: Test Example 2: herbicidal activity, application during weed generation in submerged conditions; details: Eighteenth Table; application herbicide amount 320 g/ha
Summary of the method: (§1)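 Scored three weeks post-application on a 0–5 scale (5: ≥90% herbicidal ratio, almost withered; 0: ≤5%). Plants raised from mixed-sown seed in submerged alluvial soil (4 cm water), 25–30 °C greenhouse; water-diluted emulsion applied onto water surface at one- to two-leaf stage, dose in g/ha.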

Monochoria vaginalis = assay: as above; details: Eighteenth Table; application herbicide amount 320 g/ha
Summary of the method: as §1

Scirpus juncoides = assay: as above; details: Eighteenth Table; application herbicide amount 320 g/ha
Summary of the method: as §1

Abutilon theophrasti = assay: Test Example 4: herbicidal effect by application to foliage (diluvial soil, plastic box); details: foliage application, 320 g/ha
Summary of the method: (§2)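 Seeds sown in sterilized diluvial soil, covered ~1.5 cm, grown 14 days in greenhouse at 25° C. to 30° C. Emulsion formulation diluted in water to set rate (g/ha) and sprayed onto stems and leaves. Effect scored visually 3 weeks later on 0–5 scale (5 = ≥90% herbicidal ratio, 0 = ≤5%).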

Alopecurus myosuroides = assay: as above; details: foliage application, 320 g/ha
Summary of the method: as §2

Amaranthus retroflexus = assay: as above; details: foliage application, 320 g/ha
Summary of the method: as §2

Apera spica-venti. = assay: as above; details: foliage application, 320 g/ha
Summary of the method: as §2

Avena fatua = assay: as above; details: foliage application, 320 g/ha
Summary of the method: as §2

Chenopodium album = assay: as above; details: foliage application, 320 g/ha
Summary of the method: as §2

Digitaria ciliaris = assay: as above; details: foliage application, 320 g/ha
Summary of the method: as §2

[2] = tested on: Echinochloa crus-galli var. crus-galli; assay: as above; details: foliage application, 320 g/ha
Summary of the method: as §2

Galium spurium = assay: as above; details: foliage application, 320 g/ha
Summary of the method: as §2

Lolium multiflorum Lam. = assay: as above; details: foliage application, 320 g/ha
Summary of the method: as §2

Setaria viridis = assay: as above; details: foliage application, 320 g/ha
Summary of the method: as §2

Stellaria media = assay: as above; details: foliage application, 320 g/ha
Summary of the method: as §2

Veronica persica = assay: as above; details: foliage application, 320 g/ha
Summary of the method: as §2

[3] = tested on: Beta vulgaris ssp. vulgaris; assay: Test Example 4: effect on crop by application to foliage (diluvial soil, plastic box); details: foliage application, 320 g/ha
Summary of the method: as §2

Brassica campestris L. = assay: as above; details: foliage application, 320 g/ha
Summary of the method: as §2

Glycine max = assay: as above; details: foliage application, 320 g/ha
Summary of the method: as §2

Triticum aestivum = assay: as above; details: foliage application, 320 g/ha
Summary of the method: as §2

Zea mays = assay: as above; details: foliage application, 320 g/ha
Summary of the method: as §2

[4] = tested on: directly sowed Oryza sativa; assay: as above; details: foliage application, 320 g/ha
Summary of the method: as §2

Row | SMILES | A (Echinochloa oryzicola Vasing.) herbicidal ratio grade [1] | C (Monochoria vaginalis) herbicidal ratio grade (Monochoria vaginalis) | B (Scirpus juncoides) herbicidal ratio grade (Scirpus juncoides) | M (Abutilon theophrasti) herbicidal effect grade (Abutilon theophrasti) | J (Alopecurus myosuroides) herbicidal effect grade (Alopecurus myosuroides) | N (Amaranthus retroflexus) herbicidal effect grade (Amaranthus retroflexus) | L (Apera spica-venti.) herbicidal effect grade (Apera spica-venti.) | I (Avena fatua) herbicidal effect grade (Avena fatua) | O (Chenopodium album) herbicidal effect grade (Chenopodium album) | F (Digitaria ciliaris) herbicidal effect grade (Digitaria ciliaris) | H (Echinochloa crus-galli var. crus-galli) herbicidal effect grade [2] | Q (Galium spurium) herbicidal effect grade (Galium spurium) | K (Lolium multiflorum Lam.) herbicidal effect grade (Lolium multiflorum Lam.) | G (Setaria viridis) herbicidal effect grade (Setaria viridis) | P (Stellaria media) herbicidal effect grade (Stellaria media) | R (Veronica persica) herbicidal effect grade (Veronica persica) | f (Beta vulgaris ssp. vulgaris) effect on crop grade [3] | g (Brassica campestris L.) effect on crop grade (Brassica campestris L.) | c (Glycine max) effect on crop grade (Glycine max) | e (Triticum aestivum) effect on crop grade (Triticum aestivum) | also measured
1 | COc1cc(OC)cc(-c2nnc3c(C(=O)Nc4nnnn4C)ccc(C(F)(F)F)n23)c1 [2-063] | 5 (Herbicidal ratio of 90% or more (almost completely withered)) | 5 (Herbicidal ratio of 90% or more (almost completely withered)) | 4 (Herbicidal ratio of 70% or more and less than 90%) | 5 (Herbicidal ratio of 90% or more (almost completely withered)) | 3 (Herbicidal ratio of 40% or more and less than 70%) | 5 (Herbicidal ratio of 90% or more (almost completely withered)) | 3 (Herbicidal ratio of 40% or more and less than 70%) | 4 (Herbicidal ratio of 70% or more and less than 90%) | 5 (Herbicidal ratio of 90% or more (almost completely withered)) | 5 (Herbicidal ratio of 90% or more (almost completely withered)) | 5 (Herbicidal ratio of 90% or more (almost completely withered)) | 4 (Herbicidal ratio of 70% or more and less than 90%) | 3 (Herbicidal ratio of 40% or more and less than 70%) | 5 (Herbicidal ratio of 90% or more (almost completely withered)) | 5 (Herbicidal ratio of 90% or more (almost completely withered)) | 5 (Herbicidal ratio of 90% or more (almost completely withered)) | 5 (Herbicidal ratio of 90% or more (almost completely withered)) | 4 (Herbicidal ratio of 70% or more and less than 90%) | 3 (Herbicidal ratio of 40% or more and less than 70%) | 3 (Herbicidal ratio of 40% or more and less than 70%) | b (Zea mays) effect on crop grade (Zea mays): 4 (Herbicidal ratio of 70% or more and less than 90%); d (directly sowed Oryza sativa) effect on crop grade [4]: 4 (Herbicidal ratio of 70% or more and less than 90%)
2 | Cn1nnnc1NC(=O)c1ccc(C(F)(F)F)n2c(-c3cc(Cl)cc(Cl)c3)nnc12 [2-064] | 3 (Herbicidal ratio of 40% or more and less than 70%) | 3 (Herbicidal ratio of 40% or more and less than 70%) | 4 (Herbicidal ratio of 70% or more and less than 90%) | 5 (Herbicidal ratio of 90% or more (almost completely withered)) | 0 (Herbicidal ratio of 5% or less (almost no effect)) | 5 (Herbicidal ratio of 90% or more (almost completely withered)) | 0 (Herbicidal ratio of 5% or less (almost no effect)) | 0 (Herbicidal ratio of 5% or less (almost no effect)) | 5 (Herbicidal ratio of 90% or more (almost completely withered)) | 3 (Herbicidal ratio of 40% or more and less than 70%) | 3 (Herbicidal ratio of 40% or more and less than 70%) | 1 (Herbicidal ratio of 5% or more and less than 20%) | 0 (Herbicidal ratio of 5% or less (almost no effect)) | 2 (Herbicidal ratio of 20% or more and less than 40%) | 5 (Herbicidal ratio of 90% or more (almost completely withered)) | 5 (Herbicidal ratio of 90% or more (almost completely withered)) | 4 (Herbicidal ratio of 70% or more and less than 90%) | 3 (Herbicidal ratio of 40% or more and less than 70%) | 0 (Herbicidal ratio of 5% or less (almost no effect)) | 0 (Herbicidal ratio of 5% or less (almost no effect)) | b (Zea mays) effect on crop grade (Zea mays): 0 (Herbicidal ratio of 5% or less (almost no effect)); d (directly sowed Oryza sativa) effect on crop grade [4]: 3 (Herbicidal ratio of 40% or more and less than 70%)
3 | COc1ccc(Cc2nnc3c(C(=O)Nc4nnnn4C)ccc(C(F)(F)F)n23)cc1 [2-065] | 5 (Herbicidal ratio of 90% or more (almost completely withered)) | 4 (Herbicidal ratio of 70% or more and less than 90%) | 4 (Herbicidal ratio of 70% or more and less than 90%) | 5 (Herbicidal ratio of 90% or more (almost completely withered)) | 3 (Herbicidal ratio of 40% or more and less than 70%) | 5 (Herbicidal ratio of 90% or more (almost completely withered)) | 4 (Herbicidal ratio of 70% or more and less than 90%) | 4 (Herbicidal ratio of 70% or more and less than 90%) | 5 (Herbicidal ratio of 90% or more (almost completely withered)) | 5 (Herbicidal ratio of 90% or more (almost completely withered)) | 5 (Herbicidal ratio of 90% or more (almost completely withered)) | 3 (Herbicidal ratio of 40% or more and less than 70%) | 3 (Herbicidal ratio of 40% or more and less than 70%) | 5 (Herbicidal ratio of 90% or more (almost completely withered)) | 5 (Herbicidal ratio of 90% or more (almost completely withered)) | 5 (Herbicidal ratio of 90% or more (almost completely withered)) | 5 (Herbicidal ratio of 90% or more (almost completely withered)) | 4 (Herbicidal ratio of 70% or more and less than 90%) | 4 (Herbicidal ratio of 70% or more and less than 90%) | 3 (Herbicidal ratio of 40% or more and less than 70%) | b (Zea mays) effect on crop grade (Zea mays): 3 (Herbicidal ratio of 40% or more and less than 70%); d (directly sowed Oryza sativa) effect on crop grade [4]: 4 (Herbicidal ratio of 70% or more and less than 90%)
4 | Cn1nnnc1NC(=O)c1ccc(C(F)(F)F)n2c([S+](C)[O-])nnc12 (stereo not shown) [2-067] | 5 (Herbicidal ratio of 90% or more (almost completely withered)) | 5 (Herbicidal ratio of 90% or more (almost completely withered)) | 4 (Herbicidal ratio of 70% or more and less than 90%) | 5 (Herbicidal ratio of 90% or more (almost completely withered)) | 4 (Herbicidal ratio of 70% or more and less than 90%) | 5 (Herbicidal ratio of 90% or more (almost completely withered)) | 3 (Herbicidal ratio of 40% or more and less than 70%) | 5 (Herbicidal ratio of 90% or more (almost completely withered)) | 5 (Herbicidal ratio of 90% or more (almost completely withered)) | 5 (Herbicidal ratio of 90% or more (almost completely withered)) | 5 (Herbicidal ratio of 90% or more (almost completely withered)) | 4 (Herbicidal ratio of 70% or more and less than 90%) | 4 (Herbicidal ratio of 70% or more and less than 90%) | 5 (Herbicidal ratio of 90% or more (almost completely withered)) | 5 (Herbicidal ratio of 90% or more (almost completely withered)) | 5 (Herbicidal ratio of 90% or more (almost completely withered)) | 5 (Herbicidal ratio of 90% or more (almost completely withered)) | 5 (Herbicidal ratio of 90% or more (almost completely withered)) | 4 (Herbicidal ratio of 70% or more and less than 90%) | 4 (Herbicidal ratio of 70% or more and less than 90%) | b (Zea mays) effect on crop grade (Zea mays): 5 (Herbicidal ratio of 90% or more (almost completely withered)); d (directly sowed Oryza sativa) effect on crop grade [4]: 5 (Herbicidal ratio of 90% or more (almost completely withered))
